Molecules are shown by their SMILES.

For test [1], the target named is T1, Coagulation factor X (Homo sapiens, UniProt P00742). Briefly: Inhibitory activity against factor Xa.
The target in a further test is Serine protease 1 (Homo sapiens, UniProt P07477). Put plainly: Inhibitory activity against trypsin was determined.
A further test addresses Prothrombin (Homo sapiens, UniProt P00734). Put plainly: Inhibitory activity against Factor IIa (serine protease) was determined.
For test [2], the target named is T1, Coagulation factor X. Briefly: Inhibitory activity against Coagulation factor Xa (serine protease) was determined.
Test [3] addresses T1, Coagulation factor X. Briefly: Inhibitory activity against factor Xa was determined.
Test [4] addresses T1, Coagulation factor X. Put plainly: Inhibitory activity against factor Xa, activity expressed as Ki nM.

T1 sequence (P00742 41-179 limits assumed): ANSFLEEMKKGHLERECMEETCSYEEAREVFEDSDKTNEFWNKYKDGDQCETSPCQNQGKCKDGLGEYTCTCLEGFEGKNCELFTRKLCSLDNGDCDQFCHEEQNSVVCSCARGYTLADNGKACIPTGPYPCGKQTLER
T1 sequence (P00742 235-488 limits assumed): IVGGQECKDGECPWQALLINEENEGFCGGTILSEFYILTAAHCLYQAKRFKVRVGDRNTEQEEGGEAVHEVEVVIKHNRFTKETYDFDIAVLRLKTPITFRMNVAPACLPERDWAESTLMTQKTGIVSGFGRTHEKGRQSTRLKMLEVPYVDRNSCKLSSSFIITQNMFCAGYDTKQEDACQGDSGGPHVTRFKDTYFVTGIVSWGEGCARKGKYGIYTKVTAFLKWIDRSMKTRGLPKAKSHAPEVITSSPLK
Serine protease 1, sequence (P07477 whole entry): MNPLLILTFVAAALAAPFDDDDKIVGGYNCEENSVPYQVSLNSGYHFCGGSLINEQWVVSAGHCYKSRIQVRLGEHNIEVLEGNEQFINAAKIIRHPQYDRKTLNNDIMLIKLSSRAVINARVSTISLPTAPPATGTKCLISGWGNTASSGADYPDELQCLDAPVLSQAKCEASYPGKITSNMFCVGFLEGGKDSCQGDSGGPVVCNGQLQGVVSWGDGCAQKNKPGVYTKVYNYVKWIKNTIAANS

With `CC(=CC(=O)Nc1ccc(-c2ccccc2S(N)(=O)=O)cc1)c1cccc(C(=N)N)c1`, at Coagulation factor X [1], it took 4 nM to reach half-maximal inhibition (IC50).
Same read-out and setting: for `N=C(N)c1cccc(/C(=C\C(=O)Nc2ccc(-c3ccccc3S(N)(=O)=O)cc2)c2ccco2)c1` the value was 184 nM; for `C/C(=C(\F)C(=O)Nc1ccc(-c2ccccc2S(N)(=O)=O)cc1F)c1cc(C(=N)N)ccc1[N+](=O)[O-]`, 15 nM.
On to `N=C(N)c1ccc(F)c(C=CC(=O)Nc2ccc(-c3ccccc3S(N)(=O)=O)cc2)c1`, for which, at Coagulation factor X [1], the IC50 (commonly the concentration that inhibits the measured activity by half) stood at 18 nM.
Still for that read-out and setting: for `CC(=Cc1cccc(C(=N)N)c1)C(=O)Nc1ccc(-c2ccccc2S(N)(=O)=O)cc1` the value was 362 nM.
With `CC(=C(F)C(=O)Nc1ccc(-c2ccccc2S(N)(=O)=O)cc1)c1cccc(C(=N)N)c1`, the IC50 against Coagulation factor X [1] was 1 nM; at Serine protease 1 it was 259 nM; at Prothrombin it was 3190 nM.
The matching figures for `C/C(=C(\F)C(=O)Nc1ccc(-c2ccccc2S(N)(=O)=O)cc1F)c1cccc(C(=N)N)c1`: 0.2 nM, 194 nM and 2200 nM.
`COc1ccc(C(=N)N)cc1C=CC(=O)Nc1ccc(-c2ccccc2S(N)(=O)=O)cc1`: the IC50 on Coagulation factor X [1] stood at 215 nM.
Take `CC(=C(F)C(=O)Nc1ccc(-c2ccccc2S(N)(=O)=O)cc1Br)c1cccc(C(=N)N)c1`: the IC50 against Coagulation factor X [1] worked out at 0.5 nM; against Serine protease 1, 189 nM; at Prothrombin, 503 nM.
`N=C(N)c1cccc(C=C(C(=O)Nc2ccc(-c3ccccc3S(N)(=O)=O)cc2)c2ccncc2)c1` showed an IC50 at Coagulation factor X [1] of 628 nM.
The same measure, in the same setting: the figure for `CC(=C(F)C(=O)Nc1ccc(-c2ccccc2S(N)(=O)=O)cc1Br)c1ccc(F)c(C(=N)N)c1` is 0.75 nM; for `CS(=O)(=O)CC(=C(F)C(=O)Nc1ccc(-c2ccccc2S(N)(=O)=O)cc1)c1cccc(C(=N)N)c1` it is 10 nM; for `N=C(N)c1cccc(C=CC(=O)Nc2ccc(-c3ccccc3S(N)(=O)=O)cc2)c1` [listing 1 of 2 here] it is 17 nM.
As for `CC(C)C(=CC(=O)Nc1ccc(-c2ccccc2S(N)(=O)=O)cc1)c1cccc(C(=N)N)c1`, at Coagulation factor X [1], the IC50 worked out at 35 nM.
Turning to `N=C(N)c1cccc(C(=CC(=O)Nc2ccc(-c3ccccc3S(N)(=O)=O)cc2)Cn2cnnn2)c1`, the IC50 against Coagulation factor X [1] came to 53 nM.
The compound `CC(=C(F)C(=O)Nc1ccc(-c2ccccc2S(N)(=O)=O)cc1F)c1ccc(F)c(C(=N)N)c1` came in with an IC50 on Coagulation factor X [1] of 1.5 nM.
The same measure, in the same setting: the figure for `N=C(N)c1cccc(C(=CC(=O)Nc2ccc(-c3ccccc3S(N)(=O)=O)cc2)Cc2cc[nH]n2)c1` is 48 nM; for `CCSCC(=C(F)C(=O)Nc1ccc(-c2ccccc2S(N)(=O)=O)cc1)c1cccc(C(=N)N)c1` it is 13 nM; for `N=C(N)c1cccc(C(=C(F)C(=O)Nc2ccc(-c3ccccc3S(N)(=O)=O)cc2)C(F)(F)F)c1` it is 3 nM.
Still for that read-out and setting: the figure for `N=C(N)c1cc(C=CC(=O)Nc2ccc(-c3ccccc3S(N)(=O)=O)cc2)ccc1F` is 99 nM; for `CCC(=CC(=O)Nc1ccc(-c2ccccc2S(N)(=O)=O)cc1)c1cccc(C(=N)N)c1` it is 7 nM.
The same measure, in the same setting: for `N=C(N)c1cccc(C(=CC(=O)Nc2ccc(-c3ccccc3S(N)(=O)=O)cc2)C(F)(F)F)c1` the value was 10 nM.
At Coagulation factor X [2], `N=C(N)c1cccc(C=CC(=O)Nc2ccc(-c3ccccc3S(N)(=O)=O)cc2)c1` [listing 2 of 2 here] registered an IC50 of 3120 nM.
Regarding `CC(C)CC(=CC(=O)Nc1ccc(-c2ccccc2S(N)(=O)=O)cc1)c1cccc(C(=N)N)c1`, at Coagulation factor X [1], half-maximal inhibition (IC50) required 5 nM.
On to `CC(=C(F)C(=O)Nc1ccc(-c2ccccc2S(N)(=O)=O)cc1Cl)c1cccc(C(=N)N)c1`, for which the half-inhibitory concentration (IC50) at Coagulation factor X [1] came out at 0.5 nM; against Serine protease 1, 188 nM; against Prothrombin, 650 nM.
With `COC(=O)C(=Cc1cccc(C(=N)N)c1)C(=O)Nc1ccc(-c2ccccc2S(N)(=O)=O)cc1`, on Coagulation factor X [3], the IC50 came to 759 nM.
In the case of `CC(=C(F)C(=O)Nc1ccc(-c2ccccc2S(N)(=O)=O)cc1Cl)c1ccc(F)c(C(=N)N)c1`, the Ki (usually the equilibrium dissociation constant of an inhibitor or competing ligand from its target) on Coagulation factor X [4] turned out to be 0.18 nM. In addition, the IC50 on Coagulation factor X [1] came out at 0.74 nM.
Regarding `CC(=C(CC(=O)O)C(=O)Nc1ccc(-c2ccccc2S(N)(=O)=O)cc1)c1cccc(C(=N)N)c1`, on Coagulation factor X [1], the half-inhibitory concentration (IC50) was 234 nM.
As to `COCC(=CC(=O)Nc1ccc(-c2ccccc2S(N)(=O)=O)cc1)c1cccc(C(=N)N)c1`, on Coagulation factor X [1], the IC50 was 7 nM.
Same read-out and setting: the figure for `N=C(N)c1cccc(C=C(C(=O)Nc2ccc(-c3ccccc3S(N)(=O)=O)cc2)c2ccccn2)c1` is 664 nM.
`CN(C)CC(=C(F)C(=O)Nc1ccc(-c2ccccc2S(N)(=O)=O)cc1F)c1cccc(C(=N)N)c1`: the midpoint of inhibition at Coagulation factor X [1], the IC50, lay at 191 nM.
On the same count and under the same terms, the figure for `N=C(N)c1cccc(C(CO)=C(F)C(=O)Nc2ccc(-c3ccccc3S(N)(=O)=O)cc2)c1` is 3.7 nM; for `CC(=C(F)C(=O)Nc1ccc(-c2ccccc2S(N)(=O)=O)cc1)c1ccc(F)c(C(=N)N)c1` it is 3.6 nM.
Turning to `C/C(=C(\F)C(=O)Nc1ccc(-c2ccccc2S(N)(=O)=O)cc1F)c1cc(C(=N)N)ccc1N`, 2.6 nM corresponded to half-maximal inhibition against Coagulation factor X [1] (IC50).
Same read-out and setting: for `CC(=C(CC(N)=O)C(=O)Nc1ccc(-c2ccccc2S(N)(=O)=O)cc1)c1cccc(C(=N)N)c1` the value was 99 nM; for `COCCOc1ccc(C(=N)N)cc1C=CC(=O)Nc1ccc(-c2ccccc2S(N)(=O)=O)cc1`, 9 nM.
For `N=C(N)c1cccc(C(=CC(=O)Nc2ccc(-c3ccccc3S(N)(=O)=O)cc2)Cn2ncnn2)c1`, inhibition at Coagulation factor X [1] was half-maximal at 245 nM (IC50).
Still for that read-out and setting: for `COc1ccc(C=CC(=O)Nc2ccc(-c3ccccc3S(N)(=O)=O)cc2)cc1C(=N)N` the value was 6470 nM.
